In PubChem BioAssay AID1996:
≈ marks a conversion by molar mass, not a printed value.

Settings: buffer; pH 7.4; 200.0 µM
With `COc1ccc(CNc2ccc(Br)cc2)cc1` the solubility kinetic was < 0.6 µg/mL. For `CC(=O)Nc1cccc(OCC(=O)Nc2sccc2C(N)=O)c1`, the solubility kinetic was 4.9 µg/mL (≈ 14.7 µM). For `CCC(C(=O)Nc1ncc(C)s1)c1ccccc1` (centres undefined), the solubility kinetic was 2.9 µg/mL (≈ 11.1 µM). For `NC(=O)COC(=O)c1ccc(-c2ccc(O)cc2)cc1`, the solubility kinetic was 1.1 µg/mL (≈ 4.05 µM). `O=C(NCCNC1CCCCC1)c1ccco1` showed a solubility kinetic of 26.2 µg/mL (≈ 111 µM). Molecule `O=C(O)CCC(=O)Nc1ccc(Br)cc1C(=O)c1ccc(Cl)cc1` has a solubility kinetic of 44.9 µg/mL (≈ 109 µM). In the case of `Cc1cc(=O)oc2cc(NC(=O)c3ccccc3Cl)ccc12`, the solubility kinetic is reported as 8 µg/mL (≈ 25.5 µM). For `Cc1nc2ccc(NC(=O)c3cnc(Cl)c(Cl)c3)cc2s1`, the solubility kinetic was 0.3 µg/mL (≈ 0.887 µM). With `CCOC(=O)Nc1ccc(OC)c([N+](=O)[O-])c1` the solubility kinetic was > 36 µg/mL. Work on `Cc1ccc(O)c(Nc2ncnc3ccc([N+](=O)[O-])cc23)c1.Cl` yielded a solubility kinetic of 9.6 µg/mL. For `Nc1ccc(C(=O)O)cc1S(=O)(=O)O`, the solubility kinetic was > 32.6 µg/mL. `Cc1nc(C)c(C(=O)OCC(=O)Nc2cccc(C)c2C)s1` gave a solubility kinetic of 39.7 µg/mL (≈ 125 µM). For `Cl.Nc1nc(N2CCN(c3ccccn3)CC2)nc2ccccc12`, the solubility kinetic was 54.8 µg/mL. In the case of `CCC1CCCCN1C(=O)c1cc(S(=O)(=O)N2CCOCC2)ccc1C` (centres undefined), the solubility kinetic is reported as > 57.1 µg/mL. Molecule `Cc1cc(C)n(CC(=O)Nc2ccc3c(c2)OCO3)c(=O)c1C#N` has a solubility kinetic of 8.4 µg/mL (≈ 25.8 µM). In the case of `O=C(NCC(O)c1ccccc1)Nc1cccs1` (centres undefined), the solubility kinetic is reported as > 39.3 µg/mL. For `CC(=O)c1c(C)[nH]c(C(=O)Nc2cccc(C)c2C)c1C`, the solubility kinetic was 2 µg/mL (≈ 7.03 µM). `CCC(=O)N/C(=N/c1nc(C)cc(C)n1)Nc1ccccc1` showed a solubility kinetic of 13 µg/mL (≈ 43.7 µM). Molecule `CCOc1ccccc1NC(=O)Cn1c(=O)sc2ccccc21` has a solubility kinetic of 1.2 µg/mL (≈ 3.65 µM). `Cc1cccc(NC(=O)c2ccccc2NC(=O)c2ccccc2)n1` gave a solubility kinetic of 1.8 µg/mL (≈ 5.43 µM). For `Fc1ccc(OCCOCCOc2cccc3[nH]ccc23)cc1`, the solubility kinetic was 16.3 µg/mL (≈ 51.7 µM). With `Nc1nc(SCC(=O)NC2CCCC2)[nH]c(=O)c1NC(=O)c1cccs1` the solubility kinetic was 4.4 µg/mL (≈ 11.2 µM). In the case of `CC1CN(CC(=O)NC(C)c2ccccc2)CC(C)O1` (centres undefined), the solubility kinetic is reported as > 41.5 µg/mL. With `O=C(Nc1cc([N+](=O)[O-])ccc1O)NC1CCS(=O)(=O)C1` (centres undefined) the solubility kinetic was > 47.3 µg/mL. `COc1ccc(OC)c(C(C)NC(=O)C(C)Cc2ccccc2)c1` (centres undefined) showed a solubility kinetic of 45.7 µg/mL (≈ 140 µM). `O=C1CSC(c2cccc([N+](=O)[O-])c2)N1CCc1ccccc1` (centres undefined) gave a solubility kinetic of 25.8 µg/mL (≈ 78.6 µM). In the case of `CCS(=O)(=O)c1ccccc1C(=O)NC1CCCc2ccccc21` (centres undefined), the solubility kinetic is reported as 42.6 µg/mL (≈ 124 µM). In the case of `CS(=O)(=O)N1CCN=C1SCc1cccc(F)c1`, the solubility kinetic is reported as 42.6 µg/mL (≈ 148 µM). In the case of `CN(CC(=O)Nc1ccc(F)c(F)c1F)C(=O)C1CCCCC1`, the solubility kinetic is reported as > 49.3 µg/mL. With `O=C(Nc1ccc(N2C(=O)CCC2=O)cc1Cl)c1cccs1` the solubility kinetic was > 50.2 µg/mL. Molecule `COc1ccc(CCC(=O)NCc2cccc(C(F)(F)F)c2)cc1` has a solubility kinetic of 10.3 µg/mL (≈ 30.5 µM). In the case of `O=C(COC(=O)c1ccc(Br)o1)NCc1ccc(Cl)cc1`, the solubility kinetic is reported as 7.2 µg/mL (≈ 19.3 µM). In the case of `CCCCCc1c(O)nc(SCCN(CC)CC)[nH]c1=O.Cl`, the solubility kinetic is reported as > 52.5 µg/mL. In the case of `COc1ccccc1-c1nc2cc(Cl)ccc2c(=O)n1O`, the solubility kinetic is reported as > 45.4 µg/mL. With `COc1ccccc1CCC(=O)OCC(=O)NC1CCCC1` the solubility kinetic was > 45.8 µg/mL. In the case of `CCNc1nc(OC)nc(SCC(=O)Nc2ccccc2)n1`, the solubility kinetic is reported as > 47.9 µg/mL. Molecule `CC(=O)Nc1ccccc1C(=O)OCc1ccccc1F` has a solubility kinetic of 32 µg/mL (≈ 111 µM). `COc1ccc(NC(=S)NC2CC3CCC2C3)c(OC)c1` (centres undefined) gave a solubility kinetic of 14.8 µg/mL (≈ 48.3 µM). In the case of `CC(C)CNc1nc(N)c([N+](=O)[O-])c(NC2CCCCC2)n1`, the solubility kinetic is reported as < 0.1 µg/mL. For `O=C(CN1CCc2ccccc2C1)Nc1ccccc1F`, the solubility kinetic was 39.4 µg/mL (≈ 139 µM). In the case of `CC1(c2ccc(Cl)cc2)NC(=O)N(CC(=O)NC2CCCCC2)C1=O` (centres undefined), the solubility kinetic is reported as > 54.6 µg/mL. In the case of `N/C(=N\O)c1ccc([N+](=O)[O-])s1`, the solubility kinetic is reported as > 28.1 µg/mL. With `O=C(Nc1ccccc1Cl)c1ccc2nccnc2c1` the solubility kinetic was > 42.6 µg/mL. With `CCN1CCN(C(=S)NC(=O)c2cc(OC)c(OC)c(OC)c2)CC1` the solubility kinetic was > 55.1 µg/mL. With `Fc1ccc(-c2c[nH]c(=S)n2Cc2ccccc2)cc1` the solubility kinetic was 1.4 µg/mL (≈ 4.92 µM). With `COc1ccc(C(=O)Nc2ccc(C3(C#N)CCCC3)cc2)cc1OC` the solubility kinetic was < 0.4 µg/mL. `CCCC(=O)N/C(N)=N/c1nc(C)c2ccccc2n1` gave a solubility kinetic of 15.3 µg/mL (≈ 56.4 µM). In the case of `O=C1CCC(=O)N1CCSC(=S)N1CCOCC1`, the solubility kinetic is reported as > 43.3 µg/mL. With `O=C(CCc1c[nH]c2ccccc12)Nc1ncccc1O` the solubility kinetic was > 42.2 µg/mL. For `CCN(CC)CCCNc1ncnc2scc(-c3ccc(F)cc3)c12`, the solubility kinetic was > 53.8 µg/mL. Molecule `COc1ccc(S(=O)(=O)NC(C)C(=O)N2CCCC2)cc1Cl` (centres undefined) has a solubility kinetic of 47 µg/mL (≈ 136 µM). `Fc1cccc(CN2CCSCC2)c1` gave a solubility kinetic of 6.3 µg/mL (≈ 29.8 µM). In the case of `Cc1ccc(SCc2noc(-c3c(C)noc3C)n2)cc1`, the solubility kinetic is reported as 2.1 µg/mL (≈ 6.97 µM). For `Clc1ccc2c(NCc3ccccn3)ccnc2c1`, the solubility kinetic was > 40.5 µg/mL. With `Clc1ccc(CN2CCN(c3ncccn3)CC2)cc1` the solubility kinetic was 29.6 µg/mL (≈ 102 µM). With `O=C(COC(=O)COc1ccccc1)NC1CCS(=O)(=O)C1` (centres undefined) the solubility kinetic was > 49.1 µg/mL. With `O=C(O)C1CCN(c2ccccc2[N+](=O)[O-])CC1` the solubility kinetic was > 37.5 µg/mL. For `O=C1Nc2ccccc2CCc2ccccc21`, the solubility kinetic was > 33.5 µg/mL. Molecule `CC1CCCCN1Cc1c[nH]c2ccccc12` (centres undefined) has a solubility kinetic of 28.8 µg/mL (≈ 126 µM). `O=C(NCc1ccccn1)Nc1ccc(Cl)cc1` gave a solubility kinetic of 34 µg/mL (≈ 130 µM). Molecule `COc1ccc(C(=O)NC2CCCCCC2)cc1S(=O)(=O)N1CCCC1` has a solubility kinetic of 6 µg/mL (≈ 15.8 µM). With `O=C1ON=C(c2ccc([N+](=O)[O-])cc2)/C1=C/c1ccccc1O` the solubility kinetic was > 46.5 µg/mL. For `COc1cc2[nH]c(=S)n(Cc3ccc(C)cc3)c(=O)c2cc1OC`, the solubility kinetic was < 0.4 µg/mL. For `O=C(NCc1ccccc1Cl)c1cnccc1C(F)(F)F`, the solubility kinetic was > 47.2 µg/mL. In the case of `CC(C(=O)O)N1c2cccc3cccc(c23)S1(=O)=O` (centres undefined), the solubility kinetic is reported as > 41.6 µg/mL. For `COC(=O)CCCNC(=O)c1ccccn1`, the solubility kinetic was > 33.3 µg/mL. `O=C(Nc1cc(Cl)ccc1Cl)C1CC(=O)N(c2ccccc2)C1` (centres undefined) showed a solubility kinetic of 1.7 µg/mL (≈ 4.87 µM). `CCNC(=S)NC(=NCc1cccnc1)Nc1nc(C)cc(C)n1` gave a solubility kinetic of 46.7 µg/mL (≈ 136 µM). In the case of `CCCCCN1C=CC=C/C1=C\C=C(C#N)C#N`, the solubility kinetic is reported as 6.9 µg/mL (≈ 28.8 µM). For `CCN(C(=O)COC(=O)c1cnccn1)c1cccc2ccccc12`, the solubility kinetic was > 50.3 µg/mL. Work on `O=C(O)C1C2CCC(C2)C1C(=O)NCCc1ccccc1` (centres undefined) yielded a solubility kinetic of 42.9 µg/mL (≈ 149 µM). In the case of `Cc1ccc(NC(=S)N(N)CCO)cc1`, the solubility kinetic is reported as > 33.8 µg/mL. For `Cc1nn(Cc2cccc(C(=O)O)c2)c(C)c1[N+](=O)[O-]`, the solubility kinetic was > 41.3 µg/mL. For `CCOc1ccc(C(=O)OC2CCCN(C)C2)cc1.Cl` (centres undefined), the solubility kinetic was > 45 µg/mL. Molecule `C=C(C)C(=O)OCC(=O)NCc1ccccc1` has a solubility kinetic of 27.2 µg/mL (≈ 117 µM). Work on `CCc1nc(NCCO)c(C#N)c2c1CSC(C)(C)C2` yielded a solubility kinetic of 41.2 µg/mL (≈ 141 µM). In the case of `CN(C(=O)COC(=O)c1cc[n+]([O-])cc1)c1ccccc1`, the solubility kinetic is reported as > 42.9 µg/mL. In the case of `COc1ccccc1NC(=O)Nc1ccc(C)cn1`, the solubility kinetic is reported as 0.8 µg/mL (≈ 3.11 µM). Work on `O=C(Nc1cccc(-c2cn3ccccc3n2)c1)c1ccccc1` yielded a solubility kinetic of 21 µg/mL (≈ 67 µM). Work on `CC(C)(C)c1cc(NC(=O)Nc2ccccc2)no1` yielded a solubility kinetic of 4.1 µg/mL (≈ 15.8 µM). Work on `CCc1nc2ccc(C(=O)Nc3ccc4c(c3)OCO4)cc2nc1CC` yielded a solubility kinetic of 1.6 µg/mL (≈ 4.58 µM). With `Cc1ccc(S(=O)(=O)/C(=C\N(C)C)c2cnc(Cl)s2)cc1` the solubility kinetic was > 51.4 µg/mL. Work on `CCOC(=O)c1ccc2[nH]c3c(c2c1)CCCC3` yielded a solubility kinetic of 5.5 µg/mL (≈ 22.6 µM). With `Cc1ccc(-c2nc3ncccc3n2O)cc1` the solubility kinetic was > 33.8 µg/mL. With `OCCN(CC#CCn1c2ccccc2c2ccccc21)CCO` the solubility kinetic was > 48.4 µg/mL. `CC(NC(=O)NC(=O)c1ccc(Cl)cc1Cl)C1CC1` (centres undefined) showed a solubility kinetic of 7.2 µg/mL (≈ 23.9 µM). In the case of `Cc1ccc(NC(=O)Cc2ncon2)cc1Cl`, the solubility kinetic is reported as > 37.8 µg/mL. For `COCc1cc(C)nc2oc(C(=O)c3ccccc3)c(N)c12`, the solubility kinetic was 8.4 µg/mL (≈ 28.3 µM). With `COCCCNC(=O)c1cc2cc3cc(OC)ccc3nc2o1` the solubility kinetic was > 47.2 µg/mL.
